Test system: liver microtissue (MT) of HepaRG hepatocyte strain
Assay: Evaluation of drug induced fatty liver toxicity by impedance of liver microtissue
Format: cell-based
Conditions: 0.5 M oleic acid
Method: 1. Completely differentiated HepaRG hepatocyte strain was obtained at the density of 4,000,000 cells/100 uL.
2. A sample was prepared according to the manual of C253000 provided by Microfit Co. 10 μL of cell suspension #1 was distributed in each well to allow 400,000 HepaRG cells to be placed per well. This step can be performed using a 3D cell preparation method such as a micropattern plate method or a hanging drop method.
3. The cells were cultured for 3 days and the cell culture medium was replaced every day.
4. On day 4, the microtissue (MT) was distributed in a 96-well plate (Ultra-Low attachment surface multiple well plate, Corning) using a 100 uL blue tip.
5a. The liver microtissue (MT) distributed in the Ultra-Low attachment surface multiple well plate was treated with 0.5 M oleic acid, a fatty liver toxicity inducing drug.
6a. A 200 μL pipette was inserted in the end of the first glass tube of Example 1 and the liver microtissue (MT) and the culture medium were sucked through the other end to fill the glass tube with preventing air bubble formation.
7a. The glass tube was inserted between the two Y tubes (third tube and fourth tube) of Example 1 and Example 4 with preventing air bubble formation.
8a. Air bubbles in the liquid were removed and let the wire of each Y tube shared the same liquid.
9a. The working electrode/sensing electrode of the potentiostat or impedance analyzer was connected to the gold (Au) wire protruding out of the Y tube (iii tube) and the reference/counter electrode was connected to the platinum (Pt) wire protruding out of the other Y tube (III tube).
10a. The liver microtissue (MT) was placed at the end of the plastic tip by using a 1 mL syringe.
11a. The pressure was set at −5 mPa by using the syringe pump and the liver microtissue (MT) was fixed at the plastic tip by the pressure difference.
12a. Alternating current impedance was measured at a fixed voltage of 50 mV from 10^6 Hz to 10^−2 Hz to measure the impedance of the liver microtissue (MT) and the PBS buffer.
13a. The pressure of the syringe pump was set at 10 mPa to allow the liver microtissue (MT) to be removed from the plastic tip.
14a. Impedance was measured at a fixed voltage of 50 mV from 10^6 Hz to 10^−2 Hz to measure the impedance of the PBS buffer (background).
15a. The interior resistance, the exterior resistance and the capacitance of 12a and the resistance and the capacitance of 14a were measured by using a Fitting program (e.g. Zview).
16a. The interior resistance, the exterior resistance and the capacitance of the liver microtissue (MT) were compared with those of the normal control group. At that time, the normal control group indicates the liver microtissue (MT) not treated with oleic acid which was regarded as a fatty liver toxicity inducing drug.
17a. […]

Compound: CCCCCCCC/C=C\CCCCCCCC(=O)O [oleic acid]
- fat formation in the liver microtissue (MT): fat was formed
- impedance of the liver microtissue (MT) (compared with the normal control group, FIG. 2a, 2b, 3): increased
- resistance of the liver microtissue (MT) (compared with the normal control group, according to the pressure changes, FIG. 3): increased
- internal resistance of the liver microtissue (MT) (fitted with Zview, compared with normal control): increased

Reference: US20230093162A1, “FATTY LIVER AND LIVER FIBROSIS EVALUATION SYSTEM BASED ON IMPEDANCE” (KOREA RESEARCH INSTITUTE OF CHEMICAL TECHNOLOGY, priority 2018, published 2023)
